Experiments:
Experiment in all cases: phosphoenolpyruvate titration of purified optical probe (fluorescence ratio)
Format in all cases: binding
Settings in all cases: phosphoenolpyruvate 0 to 10 mM, purified probe treated 10 minutes, ex 420/485 nm, em 528 nm
[1] = target: T1, Thermus thermophilus TtPFK optical probe 254/255-TtPFK-cpYFP variant, TtPFK N59H/I253G/Q254L/R255L/G256F, cpYFP Y1P (Thermus thermophilus, UniProt P21777, form not given/G256F/I253G/N59H/Q254L/R255L)
T1 construct: the numbering corresponds to the full length of the phosphoenolpyruvate-sensitive polypeptide; His-tag; made in house; host or cells: E. coli BL21 (DE3)
Method: (§1) • 1. The expression vectors (for example, a phosphoenolpyruvate optical probe expression vector based on pCDF.) were transformed into BL21 (DE3) cells, incubated inverted overnight, and the clones were picked from the plates into 250 mL Erlenmeyer flasks, placed in a shaker at 37 °C and incubated at 220 rpm to OD=0.4-0.8, then 1/1000 (V/V) of IPTG (1 M) was added to induce expression at 18 °C for 24-36 hours. • 2. Upon completion of inducible expression, cells were harvested by centrifugation at 4000 rpm for 30 min, resuspended in 50 mM phosphate buffer and disrupted ultrasonically until the broth were clear, centrifuged at 9600 rpm at 4 °C for 20 min. • 3. The centrifuged supernatant was used to obtain protein by purification through a self-packed nickel column affinity chromatography column, and the protein obtained after nickel column affinity chromatography was further used to obtain protein dissolved in 100 mM HEPES buffer (pH 7.4). • 4. After purified proteins were subjected to SDS-PAGE, probes were diluted to a protein solution having a final concentration of 0.2-5 µM using assay buffer (100 mm HEPES, 100 mM NaCl, pH 7.4). Phosphoenolpyruvate was formulated as a stock solution at a final concentration of 50 mM with the assay buffer (100 mM HEPES, 100 mM NaCl, pH 7.4). • 5. 100 µl 1 µM of protein solution was taken, incubated at 37 °C for 10 min, phosphoenolpyruvate was added for titration, and the fluorescence intensity of 528 nm emission after 420 nm and 485 nm fluorescence excitation of the protein was measured. The fluorescence excitation and emission determination of the samples were done using a multifunctional fluorescence microplate reader. • 6. 100 µl 1 µM of protein solution was taken, incubated at 37 °C for 10 min, and phosphoenolpyruvate was added to determine the absorption and fluorescence spectra of the proteins. Determination of the absorption and fluorescence spectra of the samples was done by spectrophotometer and spectrofluorometer.
(§2) For the 254/255-TtPFK-cpYFP obtained in Example 2 and the 254/255-TtPFK-I253G/Q254L/R255L/G256F-cpYFP-Y1P, 254/255-TtPFK-I253K/Q254L/R255L/G256F-cpYFP-Y1S and 254/256-TtPFK-I253Q/Q254L/G256V/G257L-cpYFP-Y1T/N246F optical probes obtained in Example 6, amino acid were mutated at positions R21, R25, V54, R55, V57, A58, N59, I60, I61, R155, G186, R212, G213, K214, K215, S216 and L320 in the phosphoenolpyruvate binding pocket, and at positions R72, R163, R172 and R246 in the ATP binding pocket to adjust the affinity of the phosphoenolpyruvate optical probe to phosphoenolpyruvate and the substrate specificity. The probes were linearized by reverse PCR, and the sequences of the mutation sites were introduced into the primers. The obtained PCR products were subjected to homologous recombination to obtain plasmids containing the above site mutations. The mutant plasmids were transformed into BL21 (DE3) for induced expression, and the mutant probe proteins were purified for the phosphoenolpyruvate response test. The detection signal of the fusion fluorescent protein containing 2 mM phosphoenolpyruvate was divided by the detection signal of the fusion fluorescent protein without phosphoenolpyruvate. […]

[2] = target: T2, Thermus thermophilus TtPFK optical probe 254/255-TtPFK-cpYFP variant, TtPFK N59H/I253K/Q254L/R255L/G256F, cpYFP Y1S (Thermus thermophilus, UniProt P21777, form not given/G256F/I253K/N59H/Q254L/R255L)
T2 construct: the numbering corresponds to the full length of the phosphoenolpyruvate-sensitive polypeptide; His-tag; made in house; host or cells: E. coli BL21 (DE3)
Method: as §1, §2

[3] = target: T3, Thermus thermophilus TtPFK optical probe 254/255-TtPFK-cpYFP variant, TtPFK V54Q/I253K/Q254L/R255L/G256F, cpYFP Y1S (Thermus thermophilus, UniProt P21777, form not given/G256F/I253K/Q254L/R255L/V54Q)
T3 construct: His-tag; made in house; host or cells: E. coli BL21 (DE3)
Method: as §1, §2

[4] = target: T4, Thermus thermophilus TtPFK optical probe 254/256-TtPFK-cpYFP variant, TtPFK G213T/I253Q/Q254L/G256V/G257L, cpYFP Y1T/N246F (Thermus thermophilus, UniProt P21777, form not given/G213T/G256V/G257L/I253Q/Q254L)
T4 construct: the numbering corresponds to the full length of the phosphoenolpyruvate-sensitive polypeptide; His-tag; made in house; host or cells: E. coli BL21 (DE3)
Method: as §1, §2

[5] = target: T5, Thermus thermophilus TtPFK optical probe 254/256-TtPFK-cpYFP variant, TtPFK L320F/I253Q/Q254L/G256V/G257L, cpYFP Y1T/N246F (Thermus thermophilus, UniProt P21777, form not given/G256V/G257L/I253Q/L320F/Q254L)
T5 construct: the numbering corresponds to the full length of the phosphoenolpyruvate-sensitive polypeptide; His-tag; made in house; host or cells: E. coli BL21 (DE3), pCDF vector
Method: as §1, §2

[6] = target: T6, Thermus thermophilus TtPFK optical probe 254/256-TtPFK-cpYFP variant, TtPFK N59D/I253Q/Q254L/G256V/G257L, cpYFP Y1T/N246F (Thermus thermophilus, UniProt P21777, form not given/G256V/G257L/I253Q/N59D/Q254L)
T6 construct: His-tag; made in house; host or cells: E. coli BL21 (DE3)
Method: as §1, §2

[7] = target: T7, Thermus thermophilus TtPFK optical probe 254/256-TtPFK-cpYFP variant, TtPFK R212M/I253Q/Q254L/G256V/G257L, cpYFP Y1T/N246F (Thermus thermophilus, UniProt P21777, form not given/G256V/G257L/I253Q/Q254L/R212M)
T7 construct: the numbering corresponds to the full length of the phosphoenolpyruvate-sensitive polypeptide; His-tag; made in house; host or cells: E. coli BL21 (DE3)
Method: as §1, §2

[8] = target: T8, Thermus thermophilus TtPFK optical probe 254/256-TtPFK-cpYFP variant, TtPFK V54Q/I253Q/Q254L/G256V/G257L, cpYFP Y1T/N246F (Thermus thermophilus, UniProt P21777, form not given/G256V/G257L/I253Q/Q254L/V54Q)
T8 construct: the numbering corresponds to the full length of the phosphoenolpyruvate-sensitive polypeptide; His-tag; made in house; host or cells: E. coli BL21 (DE3)
Method: as §1, §2

T5 sequence (P21777 other isoform, or with tags, fused parts or gaps, stated change not applied): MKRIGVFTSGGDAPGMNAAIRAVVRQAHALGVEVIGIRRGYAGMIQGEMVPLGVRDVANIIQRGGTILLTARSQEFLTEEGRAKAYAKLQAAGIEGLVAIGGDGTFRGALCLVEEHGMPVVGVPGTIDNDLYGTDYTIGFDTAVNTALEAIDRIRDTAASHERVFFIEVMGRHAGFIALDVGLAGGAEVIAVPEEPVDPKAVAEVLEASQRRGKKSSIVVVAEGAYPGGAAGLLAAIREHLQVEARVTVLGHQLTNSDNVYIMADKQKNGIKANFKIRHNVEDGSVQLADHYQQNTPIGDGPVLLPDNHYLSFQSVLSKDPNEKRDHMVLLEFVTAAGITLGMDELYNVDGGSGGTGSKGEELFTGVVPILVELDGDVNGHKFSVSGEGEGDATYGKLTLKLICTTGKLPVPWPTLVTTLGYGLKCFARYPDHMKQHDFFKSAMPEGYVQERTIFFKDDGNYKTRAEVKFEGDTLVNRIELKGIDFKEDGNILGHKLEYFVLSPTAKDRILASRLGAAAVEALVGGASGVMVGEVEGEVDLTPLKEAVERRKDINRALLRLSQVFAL
T7 sequence (P21777 other isoform, or with tags, fused parts or gaps R212M, form open): as the sequence (P21777 other isoform, or with tags, fused parts or gaps, stated change not applied) above, with R212M, F565L counted along it
T6 sequence (P21777 other isoform, or with tags, fused parts or gaps N59D, form open): as the sequence (P21777 other isoform, or with tags, fused parts or gaps, stated change not applied) above, with N59D, F565L counted along it
T4 sequence (P21777 other isoform, or with tags, fused parts or gaps G213T, form open): as the sequence (P21777 other isoform, or with tags, fused parts or gaps, stated change not applied) above, with G213T, F565L counted along it
T3 sequence (P21777 other isoform, or with tags, fused parts or gaps V54Q, form open): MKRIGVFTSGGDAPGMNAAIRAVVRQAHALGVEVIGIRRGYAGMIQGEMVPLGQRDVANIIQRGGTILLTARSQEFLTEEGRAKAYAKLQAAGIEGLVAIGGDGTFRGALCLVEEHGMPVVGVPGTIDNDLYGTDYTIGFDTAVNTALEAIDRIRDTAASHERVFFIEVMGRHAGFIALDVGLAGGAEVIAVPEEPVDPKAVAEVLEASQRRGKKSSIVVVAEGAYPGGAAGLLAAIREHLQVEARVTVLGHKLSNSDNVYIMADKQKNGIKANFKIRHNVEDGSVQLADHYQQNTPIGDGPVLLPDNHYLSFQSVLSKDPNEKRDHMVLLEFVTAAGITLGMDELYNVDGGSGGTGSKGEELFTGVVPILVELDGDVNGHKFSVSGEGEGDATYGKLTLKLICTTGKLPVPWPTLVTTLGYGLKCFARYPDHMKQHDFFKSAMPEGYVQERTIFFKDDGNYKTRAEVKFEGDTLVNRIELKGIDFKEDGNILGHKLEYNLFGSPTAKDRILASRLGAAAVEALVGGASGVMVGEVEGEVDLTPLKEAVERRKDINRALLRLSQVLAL
T8 sequence (P21777 other isoform, or with tags, fused parts or gaps V54Q, form open): as the sequence (P21777 other isoform, or with tags, fused parts or gaps, stated change not applied) above, with V54Q, F565L counted along it
T1 sequence (P21777 other isoform, or with tags, fused parts or gaps N59H, form open): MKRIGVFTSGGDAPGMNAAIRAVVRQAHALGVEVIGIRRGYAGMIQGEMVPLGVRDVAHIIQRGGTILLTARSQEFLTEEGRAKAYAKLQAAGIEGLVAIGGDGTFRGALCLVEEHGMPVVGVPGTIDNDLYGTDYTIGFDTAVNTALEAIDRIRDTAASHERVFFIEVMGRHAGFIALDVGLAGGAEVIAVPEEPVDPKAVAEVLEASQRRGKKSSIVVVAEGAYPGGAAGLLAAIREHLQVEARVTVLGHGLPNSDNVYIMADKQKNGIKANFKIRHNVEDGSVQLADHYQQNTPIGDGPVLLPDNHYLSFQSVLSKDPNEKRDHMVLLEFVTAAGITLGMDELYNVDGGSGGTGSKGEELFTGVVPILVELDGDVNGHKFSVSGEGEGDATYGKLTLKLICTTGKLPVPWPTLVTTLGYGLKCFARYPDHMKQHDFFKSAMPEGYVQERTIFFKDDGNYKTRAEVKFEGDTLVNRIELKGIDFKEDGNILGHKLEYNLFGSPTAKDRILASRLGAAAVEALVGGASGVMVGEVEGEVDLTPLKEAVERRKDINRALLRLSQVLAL
T2 sequence (P21777 other isoform, or with tags, fused parts or gaps N59H, form open): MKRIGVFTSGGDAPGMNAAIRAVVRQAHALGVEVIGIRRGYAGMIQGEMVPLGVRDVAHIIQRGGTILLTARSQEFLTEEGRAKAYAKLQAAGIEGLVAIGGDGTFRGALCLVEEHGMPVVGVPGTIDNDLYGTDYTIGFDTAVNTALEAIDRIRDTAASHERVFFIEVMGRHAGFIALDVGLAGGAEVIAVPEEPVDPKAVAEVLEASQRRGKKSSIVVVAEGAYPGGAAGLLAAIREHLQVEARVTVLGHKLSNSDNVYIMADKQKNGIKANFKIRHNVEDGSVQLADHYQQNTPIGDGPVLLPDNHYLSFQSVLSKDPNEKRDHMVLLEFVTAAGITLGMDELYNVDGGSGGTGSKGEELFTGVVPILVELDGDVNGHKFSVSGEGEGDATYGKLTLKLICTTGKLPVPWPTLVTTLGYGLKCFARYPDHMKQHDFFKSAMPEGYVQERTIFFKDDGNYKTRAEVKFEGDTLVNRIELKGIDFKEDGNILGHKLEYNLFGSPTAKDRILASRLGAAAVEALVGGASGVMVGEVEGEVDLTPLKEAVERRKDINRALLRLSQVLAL

C=C(OP(=O)(O)O)C(=O)O [phosphoenolpyruvate, Phosphoenolpyruvate]
Kd [1]: 178 µM
Kd [2]: 87.7 µM
Kd [3]: 328 µM
Kd [4]: 199 µM
Kd [5]: 1770 µM
Kd [6]: 374 µM
Kd [7]: 714 µM
Kd [8]: 281 µM

Reference: EP4624497A1, “PHOSPHOEN[…] PROBE, PREPARATION METHOD THEREFOR AND APPLICATION THEREOF” (priority 2022, dated 2024)
